# “Also recorded” adds a separate entry of the source.
# What was measured:
# [1] = Plasma ammonia after feeding molassed sugar beet supplemented with L-glutamine (dry-strip analyser); format: in vivo, horse; settings: glutamine supplementation, 60 mg/kg bwt with mSB
# Procedure: The mSB, hay and water were provided as in Part 1.
# Blood samples were drawn through an indwelling jugular catheter into tubes containing lithium heparin (on ice). In Part 1 samples were taken pre and at 0.5, 1, 1.5, 2, 3, 4, 6 and 8 hours post feed. In Parts 2, 3 and 4 samples were taken pre and at 0.25, 0.5, 0.75, 1, 1.5, 2, 3, 4, 6 and 8 hours. Samples were centrifuged, the plasma harvested, divided into aliquots and stored at −80° C.
# Total plasma protein content was estimated using a refractometer (Goldberg Refractometer).
# [2] = design: species or system horse; settings: in vivo
# Description: Six stabled Thoroughbred horses (2 mares, 4 geldings; aged 5-9 years), were maintained on hay and mixed feed for a minimum of two weeks before the start of the study. Horses were fed at 8 am and 4 pm. The mixed feed was a mix of cereal sources, fibre sources and protein sources with added vitamins and minerals. The ingredients included, in descending order of inclusion, enriched fibre pellets, rolled oats, soya hull pellets, flaked maise, flaked barley, flaked peas, molgio, full fat soya, vegetable oils, lucerne (alfalfa), calcium carbonate, dicalcium phosphate, salt, lysine, magnesium phosphate and zinc sulphate. Analysis: oil 8%, protein 12%, fibre 11%, ash 7.5%.
# Within each part of the study, the order of the feeds was randomised between horses using a Latin Square design. The study comprised four parts:
# Part 1: Acute plasma glutamine response to a single feed of molassed sugar beet (mSB), naked oats (nO) and mixed feed (M). […] Total plasma proteins were measured as an indication of plasma volume changes related to the hay or test feeds. […]
# Plasma was deproteinised with an equal volume of perchloric acid and neutralised with KHCO3. […] The method was a consolidation of those by Lund (1974), and, Beutler and Michal (1974), creating a one-step enzymic method applied to a microplate reader using only 20 μl of sample. […]
compound,measurement,setting,value
NC(=O)CC[C@H](N)C(=O)O [L-glutamine],effect on plasma ammonia concentration,[1],unaffected; also recorded: Neither did oral ingestion of glutamine have any effect
same,effect on plasma ammonia concentration,[1]; listed as G,no significant increase
same,response (peak concentration and AUC) compared with the peptide,[2],greater response
